Where “and” joins values, the source holds several entries; their conditions need not be identical. Equal values may be shown once.
How the values were obtained:
[1] = tested on: ribosomal protein S6 (Ser 235/236) phosphorylation; assay: pS6 (Ser235/236) immunofluorescence in acute striatal slices with glutamate; type: cell-based, mouse; details: peptide 50 μM 1 h, individual slices
Experimental: Adult C57Bl/6 mice were decapitated after cervical dislocation and brain slices were freshly prepared as previously described in Orellana et al ([2012]) and Papale et al ([2016]). Briefly, the brains were rapidly removed from the skull, submerged in ice‐cold sucrose‐based dissecting solution, and sliced into 200 μm‐thick slices using a vibratome. […] After a rapid fixation in 4% PFA, slices were rinsed and cryoprotected overnight at 4°C in 30% sucrose solution. On the following day, slices were cut into 18 μm‐thick slices using a cryostat (Leica CM1850), mounted onto SuperFrost Plus slides (Thermo Scientific) and stored at −20°C until processing for immunohistochemistry or immunofluorescence.
Immunofluorescence was performed as described in Papale et al ([2016]). Briefly, 1 h after blocking in 5% normal goat serum, slices were incubated overnight at 4°C with the following primary antibodies: anti‐phospho (Ser10)‐acetylated (Lys14) histone H3 (1:1,000, Millipore), anti‐phospho‐S6 ribosomal protein (Ser235/236) (1:200, Cell Signaling Technology) anti‐phospho‐S6 ribosomal protein (Ser240/244) (1:200, Cell Signaling), cleaved caspase‐3 (1:200, Cell Signaling Technology), anti‐mutant Huntingtin (1:100, Developmental Studies Hybridoma Bank, University of Iowa, #MW8), and NeuN (1:1,000, Millipore). Corresponding secondary antibodies (Alexa Fluor 546 conjugated anti‐mouse (1:200, Thermo Fisher Scientific), Alexa Fluor 488 conjugated anti‐rabbit (1:500, Thermo Fisher Scientific) and Pacific Blue goat anti‐mouse (1:200, Thermo Fisher Scientific) were incubated at room temperature for 1 h. Sections stained for mutant Huntingtin were incubated with DAPI for 20 min. Sections were subsequently mounted with fluorescent mounting medium (DAKO). Single and double‐labeled images ([…]) were obtained at 40× magnification from the striatum using a laser scanning confocal microscope (Leica SP2) equipped with the corresponding lasers and appropriate filter sets to avoid the crosstalk between the fluorochromes.
In ex‐vivo and in‐vivo immunofluorescence experiments, the number of p‐S6 or p‐AcH3 immunoreactive neurons among NeuN‐positive neurons was counted in 2–3 consecutive striatal sections per mouse in four fields per section. Caspase 3‐positive cells were quantified among NeuN‐positive neurons in each slide and expressed as percentage (ratio between caspase‐3‐positive cells and total NeuN‐positive neurons) for each field acquired through the slide. The number of cells showing mutant Huntingtin inclusions were expressed as a percentage of mutant Huntingtin‐positive cells among DAPI‐positive cells.

[2] = tested on: pMSK-1; assay: Striatal pMSK-1 immunohistochemistry 1 h after single injection; type: in vivo, mouse; details: single injection 20 mg/kg i.p., individual mice
Experimental: (§1) Immunohistochemistry was performed as described in Papale et al ([2016]). Briefly, 1 h after blocking in 5% normal goat serum and 0.1% Triton X‐100 solution, free‐floating sections were incubated overnight at 4°C with one of the following primary antibodies: anti‐phospho‐p44/42 MAP kinase (Thr202/Tyr204) (1:200, Cell Signaling Technology #9101), anti‐phospho–Elk‐1 (Ser383) (1:100, Cell Signaling #9181), anti‐phospho‐Kv4.2 (Thr607)‐R (1:100, Santa Cruz sc22254‐R), anti‐phospho‐MSK‐1 (1:100 Cell Signaling Technology #9595), anti‐phospho‐MEK1/2 (Ser218/222) (1:100, sc‐7995 Santa Cruz Biotechnology), c‐Fos (1:100, sc‐52 Santa Cruz Biotechnology), tyrosine Hydroxylase (monoclonal 1:1,000, Sigma Aldrich, Italy) and anti‐DARPP‐32 (H3) (1:100, Santa Cruz Biotechnology, #sc‐271111) overnight at 4°C. […]
(§2) For in vivo immunohistochemistry experiments, images were acquired from the dorsal striatum using a Leica DM IRB microscope under a 20× objective. The number of p‐ERK, p‐MSK‐1, p‐ELK, p‐MEK‐1, p‐VG K+, c‐Fos, and DARPP‐32 positive cells was counted in 2–3 consecutive sections per mouse, bilaterally and averaged across the sections using the ImageJ software by a blind investigator to the condition. Estimation of nigral cell loss was assessed by quantifying the number of TH‐immunopositive neurons of the SNc in 360 μm‐spaced sections for each animal.

[3] = tested on: MEK-1 phosphorylation; assay: Striatal phospho-MEK-1 immunohistochemistry 1 h after single injection; type: in vivo, mouse; details: single injection 20 mg/kg i.p., individual mice
Experimental: as §1, §2

[4] = tested on: 3-NP-induced striatal apoptosis; assay: TUNEL assay in striatum, 3-NP model with RB5; type: in vivo, mouse; details: 7 days, individual mice
Experimental: The detection of apoptosis on cultured cells or tissue sections was carried out using the DeadEnd™ Colorimetric TUNEL System kit (Promega). Cultured cells were fixed in 4% PFA for 15 min at room temperature before undergoing TUNEL staining. Tissue sections were obtained from mice perfused with 4% PFA. Brains were subsequently stored in 30% sucrose overnight and cut into 35 μm‐thick slices using a freezing microtome. Slices were mounted on slides and processed for TUNEL staining. TUNEL was performed following the manufacturer's instructions. Briefly, slides were immersed in PBS for 5 min RT and then incubated for 25 min in a […] Proteinase K solution. Then, the slides were rinsed in 1× PBS, re‐fixed in 4% PFA for 5 min, and rinsed twice with 1× PBS. […] of equilibration buffer were added to each tissue section for 5–10 min followed by 1 h of incubation at 37°C in a humidified chamber with […] of rTdT reaction mix. After that, slides were immersed in 2× SSC solution in a Coplin jar for 15 min and washed twice in PBS 1× for 5 min. The endogenous peroxidase activity was blocked with 0.3% hydrogen peroxide for 5 min. The slides were rinsed twice in 1× PBS for 5 min and incubated for 30 min with Streptavidin HRP solution and finally DAB substrate was added to react for 10 min. A light microscope was used to acquire four representative fields per slide from cultured cells and 3–4 representative slices per mouse from all experimental groups. The number of TUNEL positive cells was counted using ImageJ software.
3‐NP (3‐Nitropropionic acid) (N5636, Sigma) was dissolved in distilled water to a concentration of 50 mg/ml (pH 7.4) and passed through a 0.2‐μm filter and kept at −80°C until use. The 3‐NP solution was administered i.p. once daily at a dose of 50 mg/kg either for 21 consecutive days in the LV‐injected mice or for 7 days in combination with RB5.

[5] = peptide 20 mg/kg i.p. twice a day plus 3-NP 50 mg/kg i.p. once a day
[6] = peptide 20 mg/kg i.p. twice a day plus saline

Substance	pS6 (Ser235/236) immunoreactive neurons among NeuN-positive neurons ([1]; then glutamate 100 μM 10 min)	pS6 (Ser235/236) immunoreactive neurons among NeuN-positive neurons ([1]; then vehicle 10 min)	pMSK-1 positive cells in striatum [2]	p-MEK-1 positive cells in striatum [3]	TUNEL positive cells in striatum [4, 5]	TUNEL positive cells in striatum [4, 6]
GRKKRRQRRRPPQGGGGGEPRRTEGVGPGVPGEVEMVKGQPFDV [RB5, six D-amino acids, acetylated N-terminus]	blunted and 17.3997 and 19.6901 and 16.4767 and 13.6077 and 18.6740 and 17.1380 and 11.1928 and 12.0526 and 14.5710 and 10.2402 and 9.5439 and 15.5782 and 12.6217 and 14.7339	13.7412 and 14.9907 and 12.2371 and 13.4483 and 9.59 and 9.671 and 8.798 and 18.1241 and 17.7385 and 16.8553 and 14.4173 and 14.7976 and 16.1024 and 14.3475	selectively activated and 947.619 and 433.333 and 542.857 and 395.238 and 690.476 and 838.095 and 642.857 and 1019.05 and 728.571 and 490.476 and 328.571 and 904.762 and 1233.33 and 671.429	did not influence the phosphorylation and 335.714 and 385.714 and 421.429 and 400 and 314.286 and 271.429 and 307.143 and 464.286 and 371.429 and 428.571 and 392.857 and 285.714 and 500	significantly reduced neuronal death and 87.8049 and 8.8692 and 39.0244 and 107.72 and 134.65 and 179.533 and 163.212 and 136.585 and 117.073	29.2683 and 60.9756 and 89.7666 and 81.606 and 71.8133 and 143.627 and 134.65 and 43.3604
SCR: ineffective Scramble version of RB5 containing a TAT sequence (GRKKRRQRRRPPRVGPGVPEGVGVAVFGVKEPGQTGDVGPVGE) [reference compound]	26.24 and 21.87 and 18.27 and 25.45 and 28.87 and 26.8562 and 29.1865 and 24.4192 and 22.75 and 21.51 and 19.87 and 20.18	12.33 and 13.90 and 11.33 and 13.09 and 9.47 and 11.58 and 11.02 and 10.86 and 14.51	614.286 and 328.571 and 409.524 and 680.952 and 885.714 and 485.714 and 509.524 and 319.048 and 571.429 and 461.905 and 338.095 and 209.524 and 466.667 and 700 and 519.048	385.714 and 492.857 and 471.429 and 371.429 and 478.571 and 335.714 and 407.143 and 328.571 and 342.857 and 257.143 and 442.857 and 264.286 and 542.857	360.976 and 175.61 and 179.533 and 215.44 and 403.95 and 136.585 and 370.732	87.8049 and 58.5366 and 107.72 and 89.7666 and 104.728 and 165.854

Source: publication PMC10630888, “Nuclear ERK1/2 signaling potentiation enhances neuroprotection and cognition via Importinα1/KPNA2” (EMBO Molecular Medicine, 2023)
